Experiments:
[1] = tested on: homologous recombination (HR) in U2OS DR-GFP cells; experiment: U2OS DR-GFP chromosomal HR reporter assay; type: cell-based; settings: for suppression of HR: after 10 days of culture in 300 μM octyl-(R)-2-hydroxyglutarate vs DMSO
Procedure: These reporter assays are carried out as previously described ([…] et al., Molecular cancer research: MCR 13, 1389-1397 (2015)). Briefly, after 10 days of culture in (2R)-Octyl-alpha-hydroxyglutarate (Cayman), 1×10^6 cells were transfected in triplicate with 4 μg pI-SceI using the Amaxa Nucleofector II and Nucleofection Kit V (Lonza) per manufacturer's protocol. 72 h after transfection, cells were analyzed for GFP expression using flow cytometry, and the data was analyzed using FlowJo software to calculate %GFP positive cells. Values reported are mean±SEM.

[2] = tested on: wild-type and IDH1-R132H heterozygous HCT116 cells; experiment: Short-term growth delay assay, HCT116; type: cell-based, Human
Procedure: (§1) Cells were plated in 96-well black-walled plates (Costar) at a concentration of 2.5 k/well and allowed to adhere at room temperature for 60 minutes prior to return to the incubator. For growth delay assays containing octyl-(R)-2HG, cells were cultured with indicated concentration for 10 days prior to plating. 24 hours later, the media was changed and indicated drugs dissolved in either DMSO or DMF (cisplatin only) were added in quadruplicate at varying concentrations. For synergy experiments, cells were replica-plated and drugs added in single wells at the indicated concentrations. At 96 hours after the addition of drugs, cells were washed in PBS, fixed in 70% ethanol, and stained with Hochst at 1 μg/mL. The plates were then imaged on a Cytation 3 automated imager (BioTek), and cells were counted using CellProfiler (cellprofiler.org/). Each experiment was performed three times and values from a representative experiment are reported as mean±SEM. For synergy experiments, experiments were analyzed for synergistic interactions using Combenefit (www.cruk.cam.ac.uk/research-groups/jodrell-group/combenefit).

[3] = tested on: HCT116 IDH1-WT and -mutant tumors; experiment: In vivo BMN 673 efficacy study, subcutaneous flank xenografts; design: species or system nude mice; settings: BMN-673 0.33 mg/kg oral gavage once daily for 21 days vs vehicle
Procedure: All animal experiments were performed in compliance with our institution's IACUC committee. Four week-old female athymic nu/nu mice were used for all in vivo xenograft studies. Mice were quarantined for at least 1 week before experimental manipulation. Human HCT116 cells (with and without IDH1 mutation) were implanted subcutaneously (3-5×10^6 cells in 0.1 cc PBS) in the right flank of nude mice. When tumors reached an average volume of approximately 100 mm^3, mice were randomized into various treatment groups (5-7 mice/group) in each study. Animals were not randomized, but were grouped based on tumor size such that tumors were roughly equivalent in size when treatment was begun. The investigator was not blinded throughout the experiment. Mice were visually observed daily and tumors were measured three times per week by calipers to determine tumor volume using the formula: […]
BMN 673 was solubilized in DMSO and diluted with PBS containing 10% dimethylacetamide (Sigma-Aldrich) and 6% Solutol (Sigma-Aldrich). […] Tumor tripling time was calculated as the time required for tumors to increase in volume threefold over baseline at the time of treatment initiation. P-values were determined by Mann-Whitney U test (Stata). Kaplan-Meier curves were generated with survival fraction determined by the number of mice alive with tumor volume smaller than three times the initial pre-treatment volume. […]

[4] = tested on: wild-type or IDH1-R132H heterozygous astrocytes; experiment: Long-term colony forming (clonogenic survival) assay, astrocytes; type: cell-based, Human; settings: FIG. 2B
Procedure: (§2) Cells were counted and diluted in media containing various concentration of drug. They were then immediately seeded in 6-well plates in triplicate at 3-fold dilutions, ranging from 9000 to 37 cells per well. These plates were kept in the incubator for 10 to 14 days, following which they were washed in PBS, stained with Crystal Violet, and quantified. Each experiment was performed twice, and values reported are mean ±standard deviation.

[5] = tested on: wild-type or IDH1-R132H heterozygous astrocytes; experiment: Short-term growth delay assay, astrocytes; type: cell-based, Human; settings: for sensitization of IDH1-mutant versus WT cells to single DNA damaging agent: FIG. 6A, single agents
Procedure: as §1, with “For growth delay assays containing octyl-(R)-2HG, cells were cultured with indicated concentration for 10 days prior to plating. 24 hours later, the media was changed and indicated drugs dissolved in either DMSO or DMF (cisplatin only) were added in quadruplicate at varying concentrations.” left out

[6] = tested on: wild-type or IDH1-R132H heterozygous HCT116 cells; experiment: Long-term colony forming assay, HCT116; type: cell-based, Human; settings: FIG. 5E; at 10 nM BMN-673
Procedure: as §2

[7] = tested on: IDH1-WT U2OS DR-GFP cells; experiment: Neutral comet assay, U2OS; type: cell-based; settings: 24 h exposure to DMOG
Procedure: (§3) Neutral comet assays were performed per manufacturer's protocol (Trevigen). Briefly, cells were trypsinized, washed with PBS and suspended in LM Agarose (Trevigen). Neutral electrophosesis was conducted at 21V for 1 hour in the CometAssay Electrophoresis System (Trevigen). Data were collected with an EVOS FL microscope (Advanced Microscopy Group) and analyzed using AutoComet software (TriTek Corporation). For each experiment, three biological replicates each with >50 cells were measured, and reported values are mean±SEM.

[8] = tested on: WT and R132H/+ HCT116 cells; experiment: Neutral comet assay, HCT116; type: cell-based, Human
Procedure: as §3

Molecule: O=C(O)CCC(O)C(=O)O (stereo not drawn) [2-HG, 2-hydroxyglutarate]
- ability of treatment alone to reproduce the IDH1-associated HR defect ([1]; FIG. 1I, FIGS. 3H-3I, wild-type cells): recapitulate the IDH1-associated HR defect
- suppression of HR ([1]; FIG. 1I): dramatic, and it approached levels seen with siRNAs targeting two key HR genes, RAD51 and BRCA2
- PARP inhibitor (BMN-673) sensitivity of WT cells after 2-HG treatment ([2]; FIGS. 2C-2D, wild-type HCT116, octyl-(R)-2HG with 300 nM BMN-673, or 900 μM octyl-(R)-2HG with BMN-673 dose response): recapitulate the enhanced PARP inhibitor sensitivity seen in IDH1-mutant cells

Molecule: Cn1ncnc1[C@H]1c2n[nH]c(=O)c3cc(F)cc(c23)N[C@@H]1c1ccc(F)cc1 [BMN-673]
- tumor growth in IDH1-WT tumors ([3]; HCT116 IDH1-WT xenografts): minimal effects
- tumor growth in IDH1-mutant tumors ([3]; HCT116 IDH1-mutant xenografts): significant growth delay
- increase in sensitivity of IDH1-R132H versus wild-type astrocytes ([4]; at 10 nM BMN-673): ten-fold increase in sensitivity
- decrease in cell survival of IDH1-mutant compared to WT cells ([4]; clonogenic survival, dose of 10 nM): 10 fold
- decrease in IC50 in R132H mutants versus wild-type ([5]; FIG. 2A, BMN-673 dose response, 96 hours after addition of drug): four-fold decrease in IC50
- difference in IC50 between wild-type and IDH1-R132H heterozygous HCT116 ([2]; FIG. 5D): nearly eight-fold difference in IC50
- difference in cell viability between wild-type and IDH1-R132H heterozygous HCT116 [6]: roughly ten-fold difference in cell viability

Molecule: COC(=O)CNC(=O)C(=O)OC [DMOG, dimethyloxalylglycine]
- HR activity ([1]; 24 h pretreatment with DMOG): dose dependent HR suppression
- baseline DSBs [7]: dose dependent increase in baseline DSBs

Molecule: COS(C)(=O)=O [MMS, Methyl methanesulfonate]
- sensitization of IDH1-mutant versus WT cells to single DNA damaging agent [5]: modest, but detectable sensitization

Molecule: O=[N+]([O-])c1cc([N+](=O)[O-])c(/C=C/c2ccc(Cl)c(Cl)c2)cc1/C=C/c1ccc(Cl)c(Cl)c1 [NSC-636819]
- doses at which the increase in DSBs was observed ([8]; HCT116 IDH-WT cells): 12.5 to 50 µM
- DSBs (comet tail moment) in HCT116 IDH-WT cells ([8]; NSC-636819 treatment, HCT116 IDH-WT): dose-dependent increase in elevated DSBs, which approached the levels seen in untreated HCT116 IDH-mutant cells
- comet tail moments in HCT116 IDH-mutant cells ([8]; NSC-636819 treatment, HCT116 IDH-mutant): did not further increase comet tail moments

Molecule: N.N.[Cl][Pt][Cl] [cisplatin]
- synergy between BMN-673 and cisplatin ([5]; FIG. 2F, 8 nM BMN-673 and 1 cisplatin, IDH1 wild-type vs IDH1-R132H astrocytes): IDH1-R132H-dependent synergy
- sensitization of IDH1-mutant versus WT cells to single DNA damaging agent [5]: modest, but detectable sensitization
- synergistic interaction with BMN-673 in IDH1-mutant tumor cells ([5]; FIGS. 2E-F, 6B (cisplatin, astrocytes), FIG. 6C (TMZ, IDH1-R132H HCT116), Combenefit analysis): dramatic synergistic interaction

Molecule: CCc1c2c(nc3ccc(OC(=O)N4CCC(N5CCCCC5)CC4)cc13)-c1cc3c(c(=O)n1C2)COC(=O)[C@]3(O)CC [irinotecan]
- sensitization of IDH1-mutant versus WT cells to single DNA damaging agent [5]: modest, but detectable sensitization

Molecule: (2R)-octyl-α-hydroxyglutarate [octyl-(R)-2-hydroxyglutarate]
- suppression of HR ([1]; FIG. 1I): comparable in magnitude to RAD51 or BRCA2 suppression by siRNA knockdown

Reference: US20190133980A1, “Compositions and methods for targeting and treating homologous recombination-deficient tumors” (YALE UNIVERSITY, priority 2016, published 2019)
